From article PMC5951806, “Rapid labelling and covalent inhibition of intracellular native proteins using ligand-directed N-acyl-N-alkyl sulfonamide” (Nature Communications, 2018)

Assays:
Test in all cases: TMT LC-MSMS of 11-labelled proteins
Type in all cases: cell-based
[1] = target: Fatty acid synthase (FASN) (Homo sapiens, UniProt P49327)
[2] = target: Isoform 2 of Elongation factor 1-gamma (EEF1G) (Homo sapiens, UniProt P26641); conditions: SKBR3 cells; for Abundance Ratio: (11) / (DMSO): 11 0.5 µM 3 h vs DMSO; for Abundance Ratio: (11) / (11 with PU-H71): 11 0.5 µM 3 h vs with PU-H71 10 µM
[3] = target: T1, Isoform 3 of Very long-chain specific acyl-CoA dehydrogenase, mitochondrial (ACADVL) (Homo sapiens, UniProt P49748)
T1 sequence (P49748 64-678 isoform P49748-3): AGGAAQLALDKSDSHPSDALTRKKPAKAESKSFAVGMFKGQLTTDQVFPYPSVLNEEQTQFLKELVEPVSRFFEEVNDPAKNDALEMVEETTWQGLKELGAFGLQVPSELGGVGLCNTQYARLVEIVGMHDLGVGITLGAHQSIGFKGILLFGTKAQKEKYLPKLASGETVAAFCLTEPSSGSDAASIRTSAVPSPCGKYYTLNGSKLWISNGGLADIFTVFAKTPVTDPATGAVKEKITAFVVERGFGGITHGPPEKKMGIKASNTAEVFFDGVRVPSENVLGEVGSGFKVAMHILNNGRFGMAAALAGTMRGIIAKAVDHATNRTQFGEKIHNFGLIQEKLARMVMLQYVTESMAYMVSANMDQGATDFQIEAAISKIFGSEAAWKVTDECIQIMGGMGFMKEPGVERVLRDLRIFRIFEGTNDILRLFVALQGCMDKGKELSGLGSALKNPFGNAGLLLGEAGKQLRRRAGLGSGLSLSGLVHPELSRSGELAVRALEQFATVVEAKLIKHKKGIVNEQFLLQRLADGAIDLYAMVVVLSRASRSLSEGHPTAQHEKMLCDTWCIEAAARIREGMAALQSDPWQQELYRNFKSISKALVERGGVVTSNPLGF

[4] = target: Protein disulfide-isomerase (P4HB) (Homo sapiens, UniProt P07237)
[5] = sheet Exp1, SKBR3 cells, 11 0.5 µM 3 h vs DMSO
[6] = sheet Exp1, SKBR3 cells, 11 0.5 µM 3 h vs with PU-H71 10 µM
[7] = sheet Merged, SKBR3 cells, 11 0.5 µM 3 h vs DMSO
[8] = sheet Merged, SKBR3 cells, 11 0.5 µM 3 h vs with PU-H71 10 µM

Sequence of Fatty acid synthase (FASN) (P49327 whole entry, canonical isoform): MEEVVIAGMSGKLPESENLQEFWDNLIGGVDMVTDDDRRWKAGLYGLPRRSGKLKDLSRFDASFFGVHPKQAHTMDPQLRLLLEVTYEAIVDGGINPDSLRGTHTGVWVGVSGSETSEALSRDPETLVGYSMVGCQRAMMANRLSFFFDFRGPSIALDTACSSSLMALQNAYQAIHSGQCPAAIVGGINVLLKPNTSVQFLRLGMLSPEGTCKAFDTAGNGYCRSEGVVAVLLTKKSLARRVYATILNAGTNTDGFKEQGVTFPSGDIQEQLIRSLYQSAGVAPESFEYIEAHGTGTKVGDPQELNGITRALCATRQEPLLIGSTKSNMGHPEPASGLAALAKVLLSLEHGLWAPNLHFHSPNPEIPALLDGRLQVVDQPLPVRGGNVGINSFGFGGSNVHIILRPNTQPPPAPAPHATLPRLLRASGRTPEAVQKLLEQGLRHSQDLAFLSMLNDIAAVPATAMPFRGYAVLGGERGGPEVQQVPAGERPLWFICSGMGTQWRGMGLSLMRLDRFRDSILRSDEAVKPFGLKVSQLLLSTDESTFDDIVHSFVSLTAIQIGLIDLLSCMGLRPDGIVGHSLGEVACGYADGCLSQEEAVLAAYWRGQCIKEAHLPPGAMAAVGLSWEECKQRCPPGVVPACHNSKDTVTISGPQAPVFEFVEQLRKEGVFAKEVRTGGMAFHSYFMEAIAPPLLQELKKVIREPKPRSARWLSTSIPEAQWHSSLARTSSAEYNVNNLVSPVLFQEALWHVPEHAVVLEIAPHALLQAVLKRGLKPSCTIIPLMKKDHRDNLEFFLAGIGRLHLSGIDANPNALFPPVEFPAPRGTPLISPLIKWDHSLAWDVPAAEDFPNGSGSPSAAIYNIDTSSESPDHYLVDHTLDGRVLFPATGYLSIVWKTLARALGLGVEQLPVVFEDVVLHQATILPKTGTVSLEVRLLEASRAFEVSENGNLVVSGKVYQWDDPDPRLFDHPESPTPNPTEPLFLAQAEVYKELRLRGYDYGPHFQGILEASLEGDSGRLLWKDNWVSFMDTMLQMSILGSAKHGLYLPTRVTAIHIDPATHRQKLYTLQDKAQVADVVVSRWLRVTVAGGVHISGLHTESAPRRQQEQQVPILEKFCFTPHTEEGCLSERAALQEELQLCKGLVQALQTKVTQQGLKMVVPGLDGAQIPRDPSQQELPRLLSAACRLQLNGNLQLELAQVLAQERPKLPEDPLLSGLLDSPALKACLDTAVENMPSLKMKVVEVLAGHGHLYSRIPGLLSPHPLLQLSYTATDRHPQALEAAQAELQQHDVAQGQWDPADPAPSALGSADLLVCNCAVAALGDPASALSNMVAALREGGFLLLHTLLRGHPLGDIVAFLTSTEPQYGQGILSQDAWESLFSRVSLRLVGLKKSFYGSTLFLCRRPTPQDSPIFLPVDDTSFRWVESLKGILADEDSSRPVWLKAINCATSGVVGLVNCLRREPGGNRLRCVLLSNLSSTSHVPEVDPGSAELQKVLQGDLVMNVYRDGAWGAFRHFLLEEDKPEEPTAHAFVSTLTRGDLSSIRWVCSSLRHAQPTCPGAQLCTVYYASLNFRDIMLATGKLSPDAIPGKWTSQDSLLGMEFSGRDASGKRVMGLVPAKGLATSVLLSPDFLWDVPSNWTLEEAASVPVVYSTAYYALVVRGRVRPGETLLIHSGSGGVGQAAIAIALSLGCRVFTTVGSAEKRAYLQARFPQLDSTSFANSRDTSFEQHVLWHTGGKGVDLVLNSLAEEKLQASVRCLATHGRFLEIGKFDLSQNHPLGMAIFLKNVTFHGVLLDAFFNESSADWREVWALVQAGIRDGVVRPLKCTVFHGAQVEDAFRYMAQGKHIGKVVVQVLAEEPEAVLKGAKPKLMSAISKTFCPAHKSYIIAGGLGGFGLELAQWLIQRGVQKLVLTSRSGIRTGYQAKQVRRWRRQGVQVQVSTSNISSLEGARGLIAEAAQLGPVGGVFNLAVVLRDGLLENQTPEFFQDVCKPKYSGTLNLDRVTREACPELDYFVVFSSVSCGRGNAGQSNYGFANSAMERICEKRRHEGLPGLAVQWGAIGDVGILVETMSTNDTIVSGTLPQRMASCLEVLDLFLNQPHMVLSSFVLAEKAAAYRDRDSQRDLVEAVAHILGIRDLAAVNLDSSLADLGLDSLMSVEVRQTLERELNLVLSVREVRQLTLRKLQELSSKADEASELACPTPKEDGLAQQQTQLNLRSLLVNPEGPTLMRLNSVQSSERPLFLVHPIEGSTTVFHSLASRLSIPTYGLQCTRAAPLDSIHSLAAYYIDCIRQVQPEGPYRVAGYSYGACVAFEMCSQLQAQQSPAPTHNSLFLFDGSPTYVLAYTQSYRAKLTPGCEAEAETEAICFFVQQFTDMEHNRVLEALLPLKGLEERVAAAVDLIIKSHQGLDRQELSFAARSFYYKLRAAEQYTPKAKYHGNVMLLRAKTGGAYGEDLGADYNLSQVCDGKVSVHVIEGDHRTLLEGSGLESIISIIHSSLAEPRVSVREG
Sequence of Protein disulfide-isomerase (P4HB) (P07237 18-508): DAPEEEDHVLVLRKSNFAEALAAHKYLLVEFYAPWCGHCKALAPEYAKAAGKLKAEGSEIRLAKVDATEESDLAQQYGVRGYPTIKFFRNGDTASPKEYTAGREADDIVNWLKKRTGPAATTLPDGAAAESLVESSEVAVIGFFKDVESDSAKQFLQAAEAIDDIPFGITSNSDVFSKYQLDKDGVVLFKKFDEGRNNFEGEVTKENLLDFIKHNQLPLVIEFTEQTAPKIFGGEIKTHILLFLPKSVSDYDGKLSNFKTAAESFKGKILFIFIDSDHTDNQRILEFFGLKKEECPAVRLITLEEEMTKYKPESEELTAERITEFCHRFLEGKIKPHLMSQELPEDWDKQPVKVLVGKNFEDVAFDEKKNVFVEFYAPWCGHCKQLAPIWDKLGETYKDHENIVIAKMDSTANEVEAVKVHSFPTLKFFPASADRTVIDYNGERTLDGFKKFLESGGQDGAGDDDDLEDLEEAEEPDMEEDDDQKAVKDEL
Sequence of Isoform 2 of Elongation factor 1-gamma (EEF1G) (P26641 5-437 limits assumed): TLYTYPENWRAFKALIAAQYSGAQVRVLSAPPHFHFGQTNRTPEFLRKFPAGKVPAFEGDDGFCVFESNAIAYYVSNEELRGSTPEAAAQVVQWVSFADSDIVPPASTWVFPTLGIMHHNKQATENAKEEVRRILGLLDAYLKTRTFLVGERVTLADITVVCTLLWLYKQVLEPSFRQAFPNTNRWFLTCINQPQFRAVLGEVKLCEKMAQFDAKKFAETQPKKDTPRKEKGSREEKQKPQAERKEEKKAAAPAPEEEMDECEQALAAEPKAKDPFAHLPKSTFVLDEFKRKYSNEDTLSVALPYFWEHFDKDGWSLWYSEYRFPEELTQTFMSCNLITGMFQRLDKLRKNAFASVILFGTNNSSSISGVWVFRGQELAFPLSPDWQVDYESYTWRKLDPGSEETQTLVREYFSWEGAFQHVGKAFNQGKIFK

SMILES: CC(=O)Oc1ccc2c(c1)Oc1cc(OC(C)=O)ccc1C21OC(=O)c2cc(C(=O)NCCOCCOCCNC(=O)CCCC(=O)N(CC#N)S(=O)(=O)c3ccc(C(=O)NCCCn4c(Sc5cc6c(cc5I)OCO6)nc5c(N)ncnc54)cc3)ccc21 [compound 11]
- Abundance Ratio: (11) / (11 with PU-H71) ([1]; Exp3, FASN): 0.917
- Abundance Ratio: (11) / (DMSO) ([1]; Exp3, FASN): 4.35
- Abundances (Grouped): 11 ([1]; Exp3, FASN): 3505
- Abundances (Grouped): 11 with PU-H71 ([1]; Exp3, FASN): 3823.4
- Abundance Ratio: (11) / (DMSO) [1, 5]: 4.652
- Abundance Ratio: (11) / (11 with PU-H71) [1, 6]: 0.931
- Abundance Ratio: (11) / (11 with PU-H71) ([1]; sheet Exp2, FASN): 0.929
- Abundance Ratio: (11) / (DMSO) ([1]; sheet Exp2, FASN): 4.46
- Abundances (Grouped): 11 ([1]; sheet Exp2, FASN): 3656.7
- Abundances (Grouped): 11 with PU-H71 ([1]; sheet Exp2, FASN): 3935.1
- Abundance Ratio: (11) / (DMSO) [1, 7]: 4.491
- Abundance Ratio: (11) / (11 with PU-H71) [1, 8]: 0.931
- Abundance Ratio: (11) / (DMSO) ([2]; sheet Exp1): 4.152
- Abundance Ratio: (11) / (11 with PU-H71) ([2]; sheet Exp1): 0.818
- Abundance Ratio: (11) / (DMSO) ([2]; sheet Merged): 1.23
- Abundance Ratio: (11) / (11 with PU-H71) ([2]; sheet Merged): 0.746
- Abundance Ratio: (11) / (11 with PU-H71) ([3]; Exp3, ACADVL): 0.845
- Abundance Ratio: (11) / (DMSO) ([3]; Exp3, ACADVL): 5.056
- Abundances (Grouped): 11 ([3]; Exp3, ACADVL): 1747
- Abundances (Grouped): 11 with PU-H71 ([3]; Exp3, ACADVL): 2067.1
- Abundance Ratio: (11) / (DMSO) [3, 5]: 5.466
- Abundance Ratio: (11) / (11 with PU-H71) [3, 6]: 0.816
- Abundance Ratio: (11) / (11 with PU-H71) ([3]; sheet Exp2, ACADVL): 0.826
- Abundance Ratio: (11) / (DMSO) ([3]; sheet Exp2, ACADVL): 4.735
- Abundances (Grouped): 11 ([3]; sheet Exp2, ACADVL): 1334.4
- Abundances (Grouped): 11 with PU-H71 ([3]; sheet Exp2, ACADVL): 1615.2
- Abundance Ratio: (11) / (DMSO) [3, 7]: 4.735
- Abundance Ratio: (11) / (11 with PU-H71) [3, 8]: 0.826
- Abundance Ratio: (11) / (11 with PU-H71) ([4]; Exp3, P4HB): 0.934
- Abundance Ratio: (11) / (DMSO) ([4]; Exp3, P4HB): 3.442
- Abundances (Grouped): 11 ([4]; Exp3, P4HB): 191.7
- Abundances (Grouped): 11 with PU-H71 ([4]; Exp3, P4HB): 205.3
- Abundance Ratio: (11) / (DMSO) [4, 5]: 2.885
- Abundance Ratio: (11) / (11 with PU-H71) [4, 6]: 0.887
- Abundance Ratio: (11) / (11 with PU-H71) ([4]; sheet Exp2, P4HB): 0.87
- Abundance Ratio: (11) / (DMSO) ([4]; sheet Exp2, P4HB): 2.206
- Abundances (Grouped): 11 ([4]; sheet Exp2, P4HB): 186
- Abundances (Grouped): 11 with PU-H71 ([4]; sheet Exp2, P4HB): 213.9
- Abundance Ratio: (11) / (DMSO) [4, 7]: 2.274
- Abundance Ratio: (11) / (11 with PU-H71) [4, 8]: 0.896
